Laboratory results: US20150258220A1, “MAGNETIC RESONANCE IMAGING AND/OR SPECTROSCOPY CONTRAST AGENTS AND METHODS OF USE THEREOF” (Duke University, priority 2008, published 2015)

How the values were obtained:
[1] = 13C NMR inversion recovery of diacetyl / monohydrate in water; type: physicochemical; conditions: pH 7, water
Experimental: ^13C-labelled diacetyl was prepared from ^13C2 oxalate, which was reacted with N, N′-dimethylethylenediamine to afford 2,3-^13C2-1,4-dimethylpiperazine-2,3-dione in 97% yield. Two equivalents of methyl magnesium bromide were added to the piperazine dione to produce the dimethyl piperazine N,O-acetal. Crude acetal was hydrolyzed with 10% aqueous HCl to yield 2,3-^13C2-diacetyl, which was purified by fractional distillation. The carbonyl carbons in diacetyl are magnetically equivalent by symmetry, so at modest resolution (such as that commonly achieved in an imaging system), the spectrum is expected to have only a single line. Neat 2,3-^13C diacetyl does have a single line carbon-13 NMR spectrum, however the carbon spectrum in water has five lines. In water, the monohydrate (i.e., CH3—(^13C═O)(^13C(OH)2)CH3) with classic AX doublets (splitting JC-C=50 Hz) is the majority species. See Bell, Adv. Phys. Org. Chem., 4, 1 (1966); Bell and McDougall, Trans. Faraday Soc., 56, 1281-1285 (1960); and Greenzaid et al., J. Am. Chem. Soc., 89, 749 (1967). The dihydrate is undetectable. Equilibrium can be shifted back to diacetyl by changing solvent, and the rate of interconversion is pH dependent. At pH 7, inversion of the diacetyl alone causes recovery in 8 s, which gives the rate of dehydration. Inversion of all lines causes diacetyl to recover in 22 s.

[2] = DNP hyperpolarization (Oxford HYPERSENSE), single-shot 13C NMR in water; type: physicochemical; conditions: hyperpolarized sample in water
Source text: FIG. 1 is a single-shot hyperpolarized ^13C nuclear magnetic resonance (NMR) spectrum of 2,3-^13C diacetyl in water. Hyperpolarized 2,3-^13C diacetyl was produced by a commercially available hyperpolarizer (Oxford HYPERSENSE™, Oxford Instruments Molecular Biotools Ltd., Tubney Woods, Abingdon, Oxfordshire, United Kingdom). The sample has about 20% nuclear polarization. The thermally polarized spectrum (not shown) is similar after many averages.
In some embodiments, the hyperpolarizing is performed by DNP. DNP refers to transferring spin polarization from electrons to nuclei. DNP can be performed by doping a material with a free radical. The unpaired electrons in the free radical can be polarized, for example, by exposure to a high magnetic field and low temperature. Irradiation at the electron paramagnetic resonance frequency can then serve to transfer polarization to the nuclei. By “hyperpolarization,” it is meant that the sample is polarized to a level over that found at room temperature and 1 Tesla, preferably polarized to a polarization degree in excess of 0.1%, more preferably 1%, even more preferably 10%.

[3] = butter; cited from earlier work

## CC(=O)C(C)=O [diacetyl]
[1]
  recovery time after inversion of the diacetyl alone (gives the rate of dehydration): 8 s
  recovery time of diacetyl after inversion of all lines: 22 s
[2]
  nuclear polarization: about 20%
[3]
  partitioning between phases: mostly found in the fatty phase
